Experimental data: paper PMC2063322, “Phase I trial and pharmacokinetics of the tubulin inhibitor 1069C85--a synthetic agent binding at the colchicine site designed to overcome multidrug resistance” (British Journal of Cancer, 1997)
Values joined by “and” are separate entries in the source; they are usually repeats but may differ in a detail not shown here. Identical values can stand only once. Like-named read-outs stand apart in the source and are kept apart here.

Columns and labels:
[1] = Phase I pharmacokinetics: plasma 1069C85 by HPLC after single oral dose; design: Cmax of the patient experiencing grade 3 neurotoxicity: unit not given beside the values
Experimental: (§1) British Joumal of Cancer (1997) 75(4), 608-613 ? […] A phase I study was performed using a single oral dose every 3 weeks, administered as a suspension reconstituted in 0.1% Tween 80 and 0.9% saline. The starting dose was 2.8 mg m-2, and dose doubling was permitted until the area under curve (AUC) was ?40% of that at the mouse LD10; thereafter, a modified Fibonacci scheme was used. […] Keywords: tubulin; multidrug resistance; neurotoxicity The tubulin-binding agent 1069C85 was developed from a struc- ture activity investigation of tubulin inhibitors binding at the colchicine site on tubulin. […] No studies were performed using human tumour xenografts. […] METHODS Formulation and drug administration A formulation was developed at the Cancer Research Campaign Formulation Unit. The drug was dispensed into vials as a dry powder and reconstituted as a fine suspension by administration of 0.9% saline containing 0.1% Tween 80 (polysorbate) with vigorous mixing. Immediately before oral administration, the drug suspension was mixed with orange juice both to disguise any possible unpleasant taste and to help ensure complete ingestion.

[2] = Phase I toxicity graded by Common Toxicity Criteria
Experimental: as §1

[3] = Protein binding in human plasma (Amicon membrane centrifugation); conditions: 25 C
Experimental: as §1

[4] = Tumour response assessment in phase I patients; format: in vivo, human; conditions: 39 patients, 2.8-200 mg m-2
Experimental: as §1

[5] = Stability of 1069C85 in orange juice; conditions: suspension mixed with orange juice
Experimental: as §1

[6] = Aqueous solubility; format: physicochemical
[7] = dog, cited from earlier work
[8] = cited from earlier work
[9] = design: method as in data on file Glaxo/Wellcome, 1990; conditions: monkey, p.o.; ref data on file Glaxo/Wellcome, 1990; cited from earlier work
[10] = design: method as in Raynaud et al, 1994; conditions: mouse, estimated; ref Raynaud et al, 1994; cited from earlier work
[11] = tested on: mice; design: method as in data on file, Cancer Research Campaign, 1993; conditions: ref data on file, Cancer Research Campaign, 1993, cited from earlier work
[12] = tested on: rats; design: method as in data on file, Cancer Research Campaign, 1993; conditions: 14.3 mg m-2 p.o. (one-tenth mouse LD10), daily x 5 for 4 weeks, rat; ref data on file, Cancer Research Campaign, 1993; cited from earlier work
[13] = tested on: dogs; design: method as in Data on file, Glaxo/Wellcome, 1990; conditions: 20 mg m-2; ref Data on file, Glaxo/Wellcome, 1990; cited from earlier work
[14] = tested on: rodents; design: method as in data on file, Cancer Research Campaign, 1993; conditions: ref data on file, Cancer Research Campaign, 1993; cited from earlier work
[15] = tested on: mammalian tubulin; design: method as in Hodgson et al 1992; Hodgson, 1994; conditions: at concentrations cytotoxic to P388 cells, ref Hodgson et al 1992, 1994; cited from earlier work
[16] = tested on: murine tumours; conditions: cited from earlier work
[17] = tested on: murine tumour cell lines with acquired resistance to natural anti-cancer products; conditions: acquired resistance to a variety of natural anti-cancer products, ref Hodgson et al, 1992, 1994; cited from earlier work
[18] = tested on: human tumour cell lines; conditions: ref Raynaud et al, 1994; cited from earlier work
[19] = 1995, cited from earlier work
[20] = design: method as in van Asperen et al (1996); conditions: ref van Asperen et al (1996); cited from earlier work
[21] = micronized, 25 mg m-2, mean (SD), 5 patients
[22] = micronized, 35.8 mg m-2, 1 patient
[23] = micronized, 50 mg m-2, mean, 2 patients
[24] = micronized, 100 mg m-2, mean, 2 patients previously treated at 200 mg m-2 standard formulation
[25] = non-micronized, 2.8 mg m-2, mean (SD), 3 patients
[26] = non-micronized, 5.6 mg m-2, mean, 2 patients
[27] = non-micronized, 11.2 mg m-2, mean (SD), 4 patients
[28] = non-micronized, 22.4 mg m-2, mean (SD), 3 patients
[29] = non-micronized, 35.8 mg m-2, mean (SD), 4 patients
[30] = non-micronized, 50 mg m-2, mean, 2 patients
[31] = non-micronized, 100 mg m-2, mean (SD), 4 patients
[32] = non-micronized, 200 mg m-2, mean (SD), 4 patients
[33] = single patient (no. 39), 50 mg m-2 micronized
[34] = single patient, 100 mg m-2 micronized, ataxia, confusion, hallucinations, coma
[35] = single patient, 100 mg m-2 micronized, vivid dreams, disturbed sleep
[36] = single patient, 200 mg m-2 non-micronized, ataxia, confusion, disorientation
[37] = single patient, 200 mg m-2 non-micronized, visual disturbance, flashing lights
[38] = grade 3 patient, 200 mg m-2 non-micronized
[39] = grade 4 neurotoxicity patient, 100 mg m-2 micronized
[40] = patient no. 39, 50 mg m-2 micronized

COC(=O)Nc1cn2nc(OCc3cc(OC)c(OC)c(OC)c3)ccc2n1 [1069C85]
Cmax of the patient experiencing grade 3 neurotoxicity ([1]; 200 mg m-2, non-micronized): 159
AUC [1, 21]: 1061.8 (?269.1) gg 1-1 h-1
Cmax [1, 21]: 58.6 (?19.5) hg 1-'
Tmax [1, 21]: 9.8 (?3.2) h
t1/2 [1, 21]: 38.9 (?36.9) h
AUC [1, 22]: 1262.3 gg 1-1 h-1
Cmax [1, 22]: 70.7 hg 1-'
Tmax [1, 22]: 6.3 h
t1/2 [1, 22]: 16.3 h
AUC [1, 23]: 3786.9 gg 1-1 h-1
Cmax [1, 23]: 198.9 hg 1-'
Tmax [1, 23]: 10.6 h
t1/2 [1, 23]: 24 h
AUC [1, 24]: 15011.7 gg 1-1 h-1
Cmax [1, 24]: 292.3 hg 1-'
Tmax [1, 24]: 6.1 h
t1/2 [1, 24]: 24.7 h
time after dosing at which drug was still detectable in the cerebrospinal fluid ([1]; most severely affected patient, 100 mg m-2 micronized): 8 days and 7 days
terminal half-life (range between patients) ([1]; non-micronized formulation, one-compartment model): 7 to 107 h
Cmax [1, 25]: 7.3 (?3.4) hg 1-'
Tmax [1, 25]: 10 (?7.1) h
t1/2 [1, 25]: 29 (+22) h
AUC ([1]; non-micronized, 2.8 mg m-2 single oral dose, mean (SD), 3 patients, AUC to 24 h): 69.9 (?30.2) gg 1-1 h-1
AUC [1, 26]: 209.7 gg 1-1 h-1
Cmax [1, 26]: 13 hg 1-'
Tmax [1, 26]: 9.5 h
t1/2 [1, 26]: 39.5 h
AUC [1, 27]: 371.5 (?178.7) gg 1-1 h-1
Cmax [1, 27]: 21.7 (?11.3) hg 1-'
Tmax [1, 27]: 5.3 (?1.2) h
t1/2 [1, 27]: 23.2 (?6.9) h
AUC [1, 28]: 476.4 (?206.8) gg 1-1 h-1
Cmax [1, 28]: 25.9 (?11.4) hg 1-'
Tmax [1, 28]: 7.6 (?1.9) h
t1/2 [1, 28]: 35.7 (?15.1) h
AUC [1, 29]: 507.5 (?153.6) gg 1-1 h-1
Cmax [1, 29]: 33 (?13.9) hg 1-'
Tmax [1, 29]: 7.8 (?3.4) h
t1/2 [1, 29]: 22.9 (?19.5) h
AUC [1, 30]: 423.3 gg 1-1 h-1
Cmax [1, 30]: 22 hg 1-'
Tmax [1, 30]: 7.2 h
t1/2 [1, 30]: 73.5 h
AUC [1, 31]: 844.7 (?314.7) gg 1-1 h-1
Cmax [1, 31]: 48.5 (?25) hg 1-'
Tmax [1, 31]: 4.8 (?1.1) h
t1/2 [1, 31]: 23 (?4.3) h
AUC [1, 32]: 3011 (?1771.4) gg 1-1 h-1
Cmax [1, 32]: 99.8 (?36.9) hg 1-'
Tmax [1, 32]: 8.8 (?1.9) h
t1/2 [1, 32]: 18.2 (?3) h
terminal elimination half-life (range) ([1]; original formulation, single oral dose every 3 weeks, patients): 18 to 73.5 h
AUC [1, 33]: 16.4 ItM h
Cmax [1, 33]: 327 .g l-i
AUC [1, 34]: 23.4 ItM h
Cmax [1, 34]: 495 .g l-i
AUC [1, 35]: 53.9 ItM h
Cmax [1, 35]: 90 .g l-i
AUC [1, 36]: 15.2 ItM h
Cmax [1, 36]: 159 .g l-i
AUC [1, 37]: 5.1 ItM h
Cmax [1, 37]: 100 .g l-i
incidence of central neurotoxicity (mainly mild sedation) ([2]; 200 mg m-2, non-micronized): four of five
duration of neurotoxic symptoms [2, 38]: 7 days
onset of neurotoxic symptoms after dosing [2, 38]: 48 h
alopecia grade [2, 39]: 2
neutropenia grade [2, 39]: 3
onset of neurotoxicity ([2]; grade 4 patient, 100 mg m-2 micronized): approximately 48 h
severe central neurotoxicity, maximum grade ([2]; micronized formulation, doses of 50-100 mg m-2): ≤ 4
toxicities observed ([2]; micronized, 25 or 35.8 mg m-2): No significant toxicities
nausea and vomiting grade (only toxicities observed) ([2]; non-micronized, 2.8 to 22.4 mg m-2): 1-2
antiproliferative toxicities ([2]; original formulation, 2.8-200 mg m-2): no antiproliferative toxicities
day of death attributed to 1069C85 [2, 40]: 8 days
thrombocytopenia grade [2, 40]: 3
vomiting and diarrhoea grade [2, 40]: 2
neutropenia grade ([2]; patient no. 39, 50 mg m-2 micronized, onset day 6): 4
Cmax at which severe neurotoxicity was not observed ([2]; patients): < 100 ng ml'
peak plasma concentration above which CNS neurotoxicity was severe ([2]; patients): above 100 tg 1-'
Neurotoxicity (CTC grade) ([2]; single patient (no. 39), 50 mg m-2 micronized, agitation, confusion and visual hallucinations, days 2-6): 3
Neurotoxicity (CTC grade) ([2]; single patient, 100 mg m-2 micronized, ataxia, confusion, hallucinations, coma, days 2-7): 4
Neurotoxicity (CTC grade) ([2]; single patient, 100 mg m-2 micronized, vivid dreams, disturbed sleep, days 3-6): 1
Neurotoxicity (CTC grade) ([2]; single patient, 200 mg m-2 non-micronized, ataxia, confusion, disorientation, days 2-6): 3
Neurotoxicity (CTC grade) [2, 37]: 1
Protein binding [3]: > 99%
objective responses [4]: no objective responses
effect of orange juice on the stability [5]: no effect
aqueous solubility [6]: extremely poor
oral bioavailability ([7]; i.v. formulation dimethyl isosorbide, ref data on file, Glaxo/Wellcome 1990): 7%
plasma elimination half-life following oral administration ([7]; p.o., ref Data on file 1990): approximately 16 h
increase of bioavailability with micronized drug ([8]; mice, preclinical, ref F I Raynaud, personal communication): two-threefold
oral bioavailability ([8]; mouse, i.v. vehicle DMSO/saline, ref Raynaud et al, 1994): 20%
plasma elimination half-life following oral administration ([8]; mouse, p.o., ref Raynaud et al, 1994): ~8 h
plasma elimination half-life following oral administration [9]: ~2 h
Protein binding [10]: 85-99%
LD10, single dose intraperitoneally ([11]; mice, i.p.): 39.6 mg m-2
LD10, single oral dose ([11]; mice, p.o.): 142.2 mg m-2
repeat dose that proved to be fatal ([11]; mouse, i.p., daily x 5 for 4 weeks): above 3.9 mg m-2
animals in which repeat dosing proved fatal [12]: seven out of ten
toxicity observed in dogs [13]: fatal toxicity
dose limiting toxicities [14]: myelosuppression and gastrointestinal damage
inhibition of tubulin polymerization [15]: potent inhibition
activity of the 20 mg kg-1 oral dose ([16]; 20 mg kg-1, oral, mouse): active dose
anti-tumour activity in vivo ([16]; oral route, a variety of murine tumours): confirmed
activity against resistant murine tumour cell lines [17]: retained activity
activity in resistant human tumour cell lines [18]: confirmed these findings

CCOC(=O)Nc1cc2c(c(N)n1)N=C(c1ccccc1)[C@H](C)N2 [CI-980]
dose limiting toxicity ([19]; 24 h-infusion schedule, ataxia, confusion and coma, ref Sklarin et al): dose limiting central neurotoxicity
dose limiting toxicity ([19]; 72 h-infusion, ref Rowinsky et al): dose limiting myelosuppression

CC[C@]1(O)C[C@@H]2CN(CCc3c([nH]c4ccccc34)[C@@](C(=O)OC)(c3cc4c(cc3OC)N(C)[C@H]3[C@@](O)(C(=O)OC)[C@H](OC(C)=O)[C@]5(CC)C=CCN6CC[C@]43[C@@H]65)C2)C1 [vinblastine]
accumulation of drug in the brains of P-glycoprotein-deficient versus wild-type mice [20]: substantially greater accumulation
